Entries after “also recorded” stand apart in the source; their conditions may differ.
How the values were obtained:
[1] = molecular target: T1, DAGLB (Mus musculus, UniProt Q91WC9); test: ABPP-SILAC in Neuro2A cells; details: about 4 hours; 25 nM KT172, 50 nM KT109
T1 sequence (Q91WC9 1-669): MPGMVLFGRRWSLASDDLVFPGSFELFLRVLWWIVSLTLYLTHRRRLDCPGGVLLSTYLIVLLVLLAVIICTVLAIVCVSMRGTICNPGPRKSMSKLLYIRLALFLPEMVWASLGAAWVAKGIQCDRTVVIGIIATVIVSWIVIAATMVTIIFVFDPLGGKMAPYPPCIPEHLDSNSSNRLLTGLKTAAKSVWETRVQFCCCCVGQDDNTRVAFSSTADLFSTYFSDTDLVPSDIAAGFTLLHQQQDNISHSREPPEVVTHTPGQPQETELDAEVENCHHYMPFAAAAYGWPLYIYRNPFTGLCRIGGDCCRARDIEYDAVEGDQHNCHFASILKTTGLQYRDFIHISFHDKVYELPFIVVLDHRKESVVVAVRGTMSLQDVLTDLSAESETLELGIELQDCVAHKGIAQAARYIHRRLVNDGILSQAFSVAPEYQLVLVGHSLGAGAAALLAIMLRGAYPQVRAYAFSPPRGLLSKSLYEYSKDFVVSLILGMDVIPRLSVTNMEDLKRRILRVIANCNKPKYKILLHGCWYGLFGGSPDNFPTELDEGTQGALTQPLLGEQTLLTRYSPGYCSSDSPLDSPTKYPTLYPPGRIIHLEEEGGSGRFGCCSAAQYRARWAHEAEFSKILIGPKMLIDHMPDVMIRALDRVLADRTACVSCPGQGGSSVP

[2] = molecular target: T2, DAGLA (Mus musculus, UniProt Q6WQJ1); test: Activity against recombinant DAGLA; format: biochemical
T2 construct: Full-length cDNAs encoding serine hydrolases were purchased from Open Biosystems; V5; host or cells: HEK293T

[3] = molecular target: T1, DAGLB; test: Gel-based ABPP assay against recombinant DAGLB (HEK293T-DAGLB lysates); format: biochemical; set-up: Full-length cDNAs encoding serine hydrolases were purchased from Open Biosystems; V5; host or cells: HEK293T; details: recombinant
[4] = molecular target: T1, DAGLB; test: ABPP-MudPIT of peritoneal macrophages from treated mice; details: in vivo
[5] = molecular target: T1, DAGLB; test: In situ inhibition in Neuro2A cells, competitive ABPP with HT-01; format: cell-based; set-up: from tissue; host or cells: thioglycolate-elicited peritoneal macrophages of treated mice; details: 4 hours
Method: For gel-based competitive ABPP studies, proteomes from cells treated in situ with inhibitor for 4 h at 37° C. at the indicated concentrations (n=3) were labeled with HT-01 (1 μM) for 30 min at 37° C. After quenching, SDS-PAGE, and in-gel visualization, the percentage of enzyme activity remaining was determined by measuring the integrated optical intensity of the bands using IMAGER® software. For LC-MS substrate assays, the percentage of enzyme activity remaining was determined by comparing the specific activity (amount of 2-AG formed per min per mg of proteome) of inhibitor with DMSO-treated samples. The IC50 values were determined from a dose-response curve generated using GraphPad PRISM® software.

[6] = molecular target: T1, DAGLB; test: In vivo DAGLB inactivation in peritoneal macrophages, gel-based competitive ABPP using HT01; set-up: from tissue; host or cells: thioglycolate-elicited peritoneal macrophages of treated mice; details: i.p.
[7] = system: peritoneal macrophages; test: Metabolomics of thioglycolate-elicited peritoneal macrophages from treated mice; format: in vivo, mouse; details: 5 mg/kg, 4 hours, i.p.
Method: Mice were treated with KT109, KT172 or KT195 (5 mg/kg, 4 hours, i.p.) to evaluate whether blockade of DAGLB in peritoneal macrophages would result in metabolic effects similar to those observed in Neuro2A cells. Thioglycolate-elicited peritoneal macrophages were harvested, and the cells were subjected to metabolomics studies. […] All the metabolic effects observed in pharmacological studies were recapitulated using Daglb^−/− mice, providing genetic evidence that the changes were indeed DAGLB-mediated.
Metabolites were quantified by either selected reaction monitoring (SRM) of each metabolite using an Agilent G6410B Triple-Quad instrument or untargeted metabolomic analysis (substrate assays) using an Agilent 1100 series LC-MSD SL instrument. […] For analysis of diacylglycerols (DAGs) a Luna C5 column (50 mm×4.60 mm with 5 μm diameter particles) from Phenomenex was used. Mobile phase A was made of 95:5 v/v H2O:MeOH, and mobile phase B was composed of 60:35:5 v/v/v i-PrOH:MeOH:H2O. Ammonium hydroxide (0.1%) and formic acid (0.1%) was included to assist in ion formation in negative and positive ionization modes, respectively. For analysis of DAGs, 5 mM ammonium formate was also used in addition to 0.1% formic acid to assist in positive ionization and NH4+ adduct formation. For metabolite measurements, cells were resuspended in 1 mL of a 1% NaCl solution and added to 3 mL of a 2:1 v/v CHCl3:MeOH doped with 1 nmol of the following internal standards: d5-2-arachidonoylglycerol (2-AG), d8-arachidonic acid (AA), and d8-1-stearoyl-2-arachidonoylglycerol (SAG). The mixture was vortexed and then centrifuged (1,400×g, 3 min). The organic layer was removed, CHCl3 was added until the final volume was again 4 ml, and the extraction was repeated. The combined organic extracts were dried under a stream of N2 and resolubilized in 2:1 v/v CHCl3:MeOH (120 μl). 30 μL of resolubilized lipids were injected for positive mode (MAGs and DAGs) and negative mode (free fatty acids and eicosanoids) measurements.
The following parameters (MS) were used to measure the indicated metabolites by SRM (precursor ion, product ion, collision energy in V, polarity): C20:4 MAG or 2-AG (379, 287, 8, positive), d5-2-AG (384, 287, 5, positive), C18:0/C20:4 DAG or SAG (662, 341, 15, positive), d8-SAG (671, 671, 0, positive), C18:1/C20:4 DAG (660, 341, 15, positive), C16:0/C20:4 DAG (634, 341, 15, positive), C14:0/C20:4 DAG (606, 341, 15, positive), arachidonic acid or AA (303, 303, 0, negative), d8-AA (311, 267, 5, negative), PGE2 (351, 271, 10, negative), and PGD2 (351, 271, 10, negative). MS analysis was performed with an electrospray ionization source with the following parameters: drying gas temperature=350° C., drying gas flow rate=11 L/min, and the nebulizer pressure=35 psi. Prostaglandin SRM parameters were based on previously reported methods and transitions. Metabolites targeted by SRM were quantified by measuring the area under the peak in comparison with the internal standards. For metabolites where isotopic internal standards were not used, external standard curves with the internal standard versus metabolite standard were generated. In DAGL substrate assays, formation of the hydrolysis product, 2-AG was followed by measuring the area under the peak for 2-AG in comparison to the 1-monopentadecanoin standard ion.

[8] = system: serine hydrolases in mouse brain proteome; test: Selectivity profile by competitive ABPP (mouse brain proteome), DAGL series; format: biochemical
[9] = system: serine hydrolases in the peritoneal macrophage proteome; test: ABPP-MudPIT of peritoneal macrophages from treated mice, off-targets; details: mouse, in vivo
[10] = molecular target: T3, endogenous DAGLB (Mus musculus, UniProt Q91WC9); test: HT01 labeling of endogenous DAGLB in mouse brain and peritoneal macrophage proteomes; format: biochemical; details: 2 μM pretreatment
T3 construct: from tissue; host or cells: mouse brain and peritoneal macrophages

T2 sequence (Q6WQJ1 whole entry): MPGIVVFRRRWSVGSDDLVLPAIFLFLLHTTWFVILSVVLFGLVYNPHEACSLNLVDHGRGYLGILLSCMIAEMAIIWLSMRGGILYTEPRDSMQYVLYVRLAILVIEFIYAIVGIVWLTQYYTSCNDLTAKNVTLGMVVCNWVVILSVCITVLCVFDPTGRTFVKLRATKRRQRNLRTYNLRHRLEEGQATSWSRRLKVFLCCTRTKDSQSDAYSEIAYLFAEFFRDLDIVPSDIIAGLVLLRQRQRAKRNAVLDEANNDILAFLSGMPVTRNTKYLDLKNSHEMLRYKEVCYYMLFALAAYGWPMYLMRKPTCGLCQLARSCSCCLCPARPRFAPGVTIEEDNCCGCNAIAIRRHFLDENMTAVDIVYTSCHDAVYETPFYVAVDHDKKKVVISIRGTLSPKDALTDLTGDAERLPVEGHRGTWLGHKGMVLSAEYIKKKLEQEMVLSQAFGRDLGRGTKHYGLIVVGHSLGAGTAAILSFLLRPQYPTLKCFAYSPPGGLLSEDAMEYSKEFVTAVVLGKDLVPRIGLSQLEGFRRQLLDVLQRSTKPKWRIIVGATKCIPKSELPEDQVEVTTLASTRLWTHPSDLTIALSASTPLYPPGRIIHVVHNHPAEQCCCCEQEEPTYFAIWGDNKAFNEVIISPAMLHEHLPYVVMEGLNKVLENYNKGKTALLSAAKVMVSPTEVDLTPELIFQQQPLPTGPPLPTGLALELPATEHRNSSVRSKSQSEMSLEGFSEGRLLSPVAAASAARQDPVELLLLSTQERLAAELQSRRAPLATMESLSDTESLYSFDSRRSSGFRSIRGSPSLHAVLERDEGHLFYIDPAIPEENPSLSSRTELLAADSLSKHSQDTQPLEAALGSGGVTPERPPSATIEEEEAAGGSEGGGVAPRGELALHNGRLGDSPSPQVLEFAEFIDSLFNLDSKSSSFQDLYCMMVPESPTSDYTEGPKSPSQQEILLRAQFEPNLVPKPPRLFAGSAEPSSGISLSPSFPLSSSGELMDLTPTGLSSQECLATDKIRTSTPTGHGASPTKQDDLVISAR

COc1ccccc1-c1ccc(-c2cn(C(=O)N3CCCCC3Cc3ccccc3)nn2)cc1 (centres unmarked) [KT172]
DAGLB activity blocked [1]: approximately 90%
activity against DAGLA [2]: more potent against the alpha isoform in comparison with KT109
activity against DAGLB [3]: maintaining potency against DAGLB
DAGLB inhibition by spectral counting [4]: confirmed inhibition of DAGLB
IC50 [5]: 0.011 µM
time to complete inhibition of DAGLB ([6]; 5 mg/kg): within the first hour
duration / time-course of DAGLB inhibition ([6]; 5 mg/kg, about 1 to 16 hours): shorter compared with KT109
dose (as low as) giving complete inactivation of DAGLB in peritoneal macrophages ([6]; about 4 hours, doses about 10 to about 0.1 mg/kg): 0.5 mg/kg
change in 2-AG [7]: Dramatic decreases in 2-AG
change in SAG [7]: significant increases in SAG
change in cellular AA, PGE2 and PGD2 [7]: significant decreases in cellular AA levels and a corresponding reduction in PGE2 and PGD2
off-target activity / selectivity against other serine hydrolases [8]: mild activity against this off-target enzyme at higher concentrations; also recorded: slightly increased activity against MGLL
off-target activities [9]: carboxylesterases (Ces3 and Ces2g)
reduction of HT01 probe labeling of the DAGLB band [10]: > 80%

Source: patent US9108930B2, “N1- and N2-carbamoyl-1,2,3-triazole serine hydrolase inhibitors and methods” (The Scripps Research Institute, priority 2011, dated 2015)
